# Results as given in US4359461A, “Mono-, di- and tri-adamantylcarbonyl- digalactopyranosyl- glucopyranosyl- fructofuranose sulfate salts” (American Cyanamid Company, priority 1981, dated 1982).
# Where a name gives a salt, the structure may show the parent alone.
# Legend:
# shunt pathway = experiment: Test Code 036 (C-Shunt inhibitor), lysis of human erythrocytes in autologous serum via shunt pathway activated by cobra venom factor; format: biochemical; conditions: activity in wells, serial dilution assay; higher well number indicates higher activity
# Description: (§1) An active inhibitor protects C2 from C1 and C4; (ii) Test Code 035 (C3-C9 inhibitor)--This test determines the ability of the late components of human complement (C3-C9) to lyse EAC 142 in the presence of appropriate dilutions of the test compound. An active inhibitor protects EAC 142 from lysis by human C3-C9; (iii) Test Code 036 (C-Shunt inhibitor)--In this test human erythrocytes rendered fragile are lysed in autologous serum via the shunt pathway activated by cobra venom factor in the presence of appropriate dilutions of the test compound. Inhibition of the shunt pathway results in failure of lysis; (iv) Cap 50 Test--Here, appropriate amounts of the test compound are added to a pool of guinea pig serum in vitro, after which the complement level is determined in undiluted serum by the serum capillary tube assay of U.S. Pat. No. 3,876,376. The concentration of compound inhibiting 50% is reported; and (v) Guinea Pig Intraperitoneal Test (GPIP)--Guinea pigs weighing about 300 g are dosed intraperitoneally (i.p.) with 200 mg/kg of the test compound dissolved in saline and adjusted to pH 7-8. Approximately […], taken by orbital sinus puncture 30 minutes and one hour after injections, are collected directly into centrifuge tubes; 5 ml blood samples, taken by decapitation 2 hours after injection, are collected directly into diSPo® beakers. The samples were allowed to clot, centrifuged, and the resultant sera were assayed for complement activity using the capilllary complement assay. Percent inhibition is calculated by comparison with simultaneous controls. The results of the GPIP appear in Table I together with results of Test Code 026, 035, 036 and Cap 50.
# [1] = tested on: late components of human complement (C3-C9); experiment: Test Code 035 (C3-C9 inhibitor), lysis of EAC 142; format: biochemical; conditions: activity in wells, serial dilution assay; higher well number indicates higher activity
# Description: as §1
# [2] = tested on: complement activity of sera; experiment: Guinea Pig Intraperitoneal Test (GPIP); format: in vivo; conditions: 200 mg/kg i.p.
# Description: as §1
# activated human C1 = activated human C1 (Homo sapiens, UniProt P09871); experiment: Test Code 026 (C1 inhibitor); format: biochemical; conditions: activity in wells, serial dilution assay; higher well number indicates higher activity
# Description: as §1
compound,measurement,setting,value
"O=C(OC[C@H]1O[C@@](COS(=O)(=O)O)(O[C@H]2O[C@H](CO[C@H]3O[C@H](CO[C@H]4O[C@H](COS(=O)(=O)O)[C@H](OS(=O)(=O)O)[C@H](OS(=O)(=O)O)[C@H]4OS(=O)(=O)O)[C@H](OS(=O)(=O)O)[C@H](OS(=O)(=O)O)[C@H]3OS(=O)(=O)O)[C@@H](OS(=O)(=O)O)[C@H](OS(=O)(=O)O)[C@H]2OS(=O)(=O)O)[C@@H](OS(=O)(=O)O)[C@@H]1OS(=O)(=O)O)C12CC3CC(CC(C3)C1)C2 [6-O-(1-Adamantylcarbonyl)-β-D-fructofuranosyl-O-α-D-galactopyranosyl(1→6)-O-α-D-galactopyranosyl(1→6)-α-D-glucopyranoside, tridecakis(H-sulfate), tridecasalt with trimethylamine]",C-Shunt Inhibition 036 Wells,shunt pathway,+5 Wells
"O=C(OC[C@H]1O[C@H](OC[C@H]2O[C@H](OC[C@H]3O[C@H](O[C@]4(COC(=O)C56CC7CC(CC(C7)C5)C6)O[C@H](COC(=O)C56CC7CC(CC(C7)C5)C6)[C@@H](OS(=O)(=O)O)[C@@H]4OS(=O)(=O)O)[C@H](OS(=O)(=O)O)[C@@H](OS(=O)(=O)O)[C@@H]3OS(=O)(=O)O)[C@H](OS(=O)(=O)O)[C@@H](OS(=O)(=O)O)[C@H]2OS(=O)(=O)O)[C@H](OS(=O)(=O)O)[C@@H](OS(=O)(=O)O)[C@H]1OS(=O)(=O)O)C12CC3CC(CC(C3)C1)C2 [1,6-Bis-O-(1-adamantylcarbonyl)-β-D-fructofuranosyl-6-O-1-adamantylcarbonyl-O-α-D-galactopyranosyl(1→6)-O-α-D-galactopyranosyl(1→6)-α-D-glucopyranoside, undecakis(H-sulfate), undecasodium salt]",C-Late 035 Wells,[1],+1 Wells
same,In Vivo Activity (Guinea pig) % Inhibition Intraperitoneal,[2]; 30 minutes,11%
same,In Vivo Activity (Guinea pig) % Inhibition Intraperitoneal,[2]; 60 minutes,12%
same,In Vivo Activity (Guinea pig) % Inhibition Intraperitoneal,[2]; 120 minutes,72%
same,C1 026 Wells,activated human C1,+6 Wells
same,C-Shunt Inhibition 036 Wells,shunt pathway,+3 Wells
"O=C(OC[C@H]1O[C@H](OC[C@H]2O[C@H](OC[C@H]3O[C@H](O[C@]4(COS(=O)(=O)O)O[C@H](COC(=O)C56CC7CC(CC(C7)C5)C6)[C@@H](OS(=O)(=O)O)[C@@H]4OS(=O)(=O)O)[C@H](OS(=O)(=O)O)[C@@H](OS(=O)(=O)O)[C@@H]3OS(=O)(=O)O)[C@H](OS(=O)(=O)O)[C@@H](OS(=O)(=O)O)[C@H]2OS(=O)(=O)O)[C@H](OS(=O)(=O)O)[C@@H](OS(=O)(=O)O)[C@H]1OS(=O)(=O)O)C12CC3CC(CC(C3)C1)C2 [6,6'""-Di-1-adamantanecarboxylate-O--α-D-galactopyranosyl(1→6] [6,6'""-Di-1-adamantanecarboxylate-O-α-D-galactopyranosyl(1→6)-O-α-D-galactopyranosyl(1→6)-O-α-D-glucopyranosyl-β-D-fructofuranose, dodecakis(H-sulfate), dodecasalt with trimethylamine]",C-Late 035 Wells,[1],+1 Wells
same,C1 026 Wells,activated human C1,+9 Wells
same,C-Shunt Inhibition 036 Wells,shunt pathway,+3 Wells
"O=C(OC[C@H]1O[C@@](COS(=O)(=O)O)(O[C@H]2O[C@H](CO[C@H]3O[C@H](CO[C@H]4O[C@H](COS(=O)(=O)O)[C@H](OS(=O)(=O)O)[C@H](OS(=O)(=O)O)[C@H]4OS(=O)(=O)O)[C@H](OS(=O)(=O)O)[C@H](OS(=O)(=O)O)[C@H]3OS(=O)(=O)O)[C@@H](OS(=O)(=O)O)[C@H](OS(=O)(=O)O)[C@H]2OS(=O)(=O)O)[C@@H](OS(=O)(=O)O)[C@@H]1OS(=O)(=O)O)C12CC3CC(CC(C3)C1)C2 [6-O--(1-Adamantylcarbonyl)-β-D-fructofuranosyl-O--α-D-galact] [6-O-(1-Adamantylcarbonyl)-β-D-fructofuranosyl-O-α-D-galactopyranosyl(1→6)-O-α-D-galactopyranosyl(1→6)-α-D-glucopyranoside, tridecakis(H-sulfate), tridecasalt with trimethylamine]",C1 026 Wells,activated human C1,+10 Wells
"O=C(OC[C@H]1O[C@@](COS(=O)(=O)O)(O[C@H]2O[C@H](CO[C@H]3O[C@H](CO[C@H]4O[C@H](COS(=O)(=O)O)[C@H](OS(=O)(=O)O)[C@H](OS(=O)(=O)O)[C@H]4OS(=O)(=O)O)[C@H](OS(=O)(=O)O)[C@H](OS(=O)(=O)O)[C@H]3OS(=O)(=O)O)[C@@H](OS(=O)(=O)O)[C@H](OS(=O)(=O)O)[C@H]2OS(=O)(=O)O)[C@@H](OS(=O)(=O)O)[C@@H]1OS(=O)(=O)O)C12CC3CC(CC(C3)C1)C2 [6-O--(1-Adamantylcarbonyl)-β-D-fructofuranosyl-O--α-D-galact] [6-O-(1-Adamantylcarbonyl)-β-D-fructofuranosyl-O-α-D-galactopyranosyl(1→6)-O-α-D-galactopyranosyl(1→6)-α-D-glucopyranoside, tridecakis(H-sulfate), tridecasodium salt]",C-Late 035 Wells,[1],+2 Wells
same,In Vivo Activity (Guinea pig) % Inhibition Intraperitoneal,[2]; 2 hours,78%
same,In Vivo Activity (Guinea pig) % Inhibition Intraperitoneal,[2]; 6 hours,71%
same,In Vivo Activity (Guinea pig) % Inhibition Intraperitoneal,[2]; 24 hours,59%
"O=C(OC[C@H]1O[C@H](OC[C@H]2O[C@H](OC[C@H]3O[C@H](O[C@]4(COS(=O)(=O)O)O[C@H](COC(=O)C56CC7CC(CC(C7)C5)C6)[C@@H](OS(=O)(=O)O)[C@@H]4OS(=O)(=O)O)[C@H](OS(=O)(=O)O)[C@@H](OS(=O)(=O)O)[C@@H]3OS(=O)(=O)O)[C@H](OS(=O)(=O)O)[C@@H](OS(=O)(=O)O)[C@H]2OS(=O)(=O)O)[C@H](OS(=O)(=O)O)[C@@H](OS(=O)(=O)O)[C@H]1OS(=O)(=O)O)C12CC3CC(CC(C3)C1)C2 [6,6'""-Di-1-admantanecarboxylate-O--α-D-galactopyranosyl(1→6)] [6,6'""-Di-1-adamantanecarboxylate-O-α-D-galactopyranosyl(1→6)-O-α-D-galactopyranosyl(1→6)-O-α-D-glucopyranosyl-β-D-fructofuranose, dodecakis(H-sulfate), dodecasodium salt]",In Vivo Activity (Guinea pig) % Inhibition Intraperitoneal,[2]; 30 minutes,72%
same,In Vivo Activity (Guinea pig) % Inhibition Intraperitoneal,[2]; 60 minutes,92%
same,In Vivo Activity (Guinea pig) % Inhibition Intraperitoneal,[2]; 120 minutes,97%
same,C-Shunt Inhibition 036 Wells,shunt pathway,+2 Wells
